Reference: ChEMBL document CHEMBL1201862, “PubChem BioAssay data set” (2004)
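Compound exposure: 48 hours, 5 concentrations, 96-well plates. GI50 is the concentration that inhibits growth by half.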 Calls of active or inactive are those of the source. Rule as the data show it: active = GI50 up to about 1.1 µM and inactive = higher.

Tests used:
Test in all cases: NCI tumour cell line growth inhibition, 48 h
K562 = system: K562
NCI-H23 = system: NCI-H23
SW-620 = system: SW-620
MOLT-4 = system: MOLT-4
SF-295 = system: SF-295
HCC 2998 = system: HCC 2998
COLO 205 = system: COLO 205
IGROV-1 = system: IGROV-1
SNB-19 = system: SNB-19
SK-OV-3 = system: SK-OV-3
DMS-114 = system: DMS-114
U-251 = system: U-251
OVCAR-8 = system: OVCAR-8
CAKI-1 = system: CAKI-1
Hs-578T = system: Hs-578T
MCF7 = system: MCF7
MDA-N = system: MDA-N
BT-549 = system: BT-549
MDA-MB-435 = system: MDA-MB-435
OVCAR-5 = system: OVCAR-5

Measured: GI50

CCOC(=O)c1ccc(/C(C)=N/NC(N)=S)cc1
inactive: K562 > 100 µM | NCI-H23 > 100 µM | SW-620 > 100 µM | MOLT-4 > 100 µM | SF-295 > 100 µM | HCC 2998 > 100 µM | COLO 205 > 100 µM | IGROV-1 > 100 µM | SNB-19 > 100 µM | SK-OV-3 > 100 µM | DMS-114 > 100 µM | U-251 > 100 µM | OVCAR-8 > 100 µM

CCOC(=O)C1=C(C#N)S(=O)(=O)c2c(oc(C)c2C)N1
inactive: K562 > 100 µM | CAKI-1 > 100 µM | NCI-H23 > 100 µM | SW-620 > 100 µM | Hs-578T > 100 µM | MCF7 > 100 µM | MDA-N > 100 µM | MOLT-4 > 100 µM | SF-295 > 100 µM | HCC 2998 > 100 µM | COLO 205 > 100 µM | IGROV-1 > 100 µM | SNB-19 > 100 µM | SK-OV-3 > 100 µM | BT-549 > 100 µM | MDA-MB-435 > 100 µM | U-251 > 100 µM | OVCAR-5 > 100 µM | OVCAR-8 > 100 µM

CN1C(c2ccccc2)=CC(=O)C(O)=C(c2ccccc2)S1(=O)=O
inactive: K562 > 100 µM | CAKI-1 > 100 µM | NCI-H23 > 100 µM | SW-620 > 100 µM | Hs-578T > 100 µM | MCF7 > 100 µM | MDA-N > 100 µM | MOLT-4 > 100 µM | SF-295 > 100 µM | HCC 2998 > 100 µM | COLO 205 > 100 µM | IGROV-1 > 100 µM | SNB-19 > 100 µM | SK-OV-3 > 100 µM | BT-549 > 100 µM | MDA-MB-435 > 100 µM | U-251 > 100 µM | OVCAR-5 > 100 µM | OVCAR-8 > 100 µM

c1ccc(C2N3CCCCC3[C@@H]3c4[nH]c5ccccc5c4CCN23)nc1 (some centres undefined)
inactive: K562 94 µM | CAKI-1 > 100 µM | NCI-H23 > 100 µM | SW-620 > 100 µM | MOLT-4 > 100 µM | SF-295 > 100 µM | IGROV-1 > 100 µM | SNB-19 > 100 µM | SK-OV-3 > 100 µM | DMS-114 27.4 µM | U-251 > 100 µM | OVCAR-5 > 100 µM | OVCAR-8 > 100 µM

CCOC(=O)CCCNC(=O)CCCCC(=O)N(C)C
inactive: K562 > 100 µM | CAKI-1 > 100 µM | NCI-H23 > 100 µM | SW-620 > 100 µM | Hs-578T > 100 µM | MCF7 > 100 µM | MDA-N > 100 µM | MOLT-4 > 100 µM | SF-295 > 100 µM | HCC 2998 > 100 µM | COLO 205 > 100 µM | IGROV-1 > 100 µM | SNB-19 > 100 µM | SK-OV-3 > 100 µM | BT-549 > 100 µM | MDA-MB-435 > 100 µM | U-251 > 100 µM | OVCAR-5 > 100 µM | OVCAR-8 > 100 µM

Oc1ccc2c(c1)OCC1c3ccccc3OC21 (centres undefined)
inactive: K562 41.2 µM | CAKI-1 46.3 µM | NCI-H23 44.9 µM | SW-620 63.5 µM | Hs-578T 47.5 µM | MCF7 86.5 µM | MDA-N 35.6 µM | MOLT-4 19.6 µM | SF-295 50.6 µM | HCC 2998 27.8 µM | COLO 205 > 100 µM | IGROV-1 51.9 µM | SNB-19 40.6 µM | SK-OV-3 > 100 µM | BT-549 55.2 µM | MDA-MB-435 33.8 µM | U-251 42.6 µM | OVCAR-5 > 100 µM | OVCAR-8 48.3 µM

Nc1nc(N)c2nc(CN(C=O)c3ccc(C(=O)O)cc3)cnc2n1
inactive: K562 1.6 µM | CAKI-1 > 28.2 µM | NCI-H23 20 µM | SW-620 17 µM | Hs-578T > 100 µM | MCF7 5.31 µM | MDA-N 8.71 µM | MOLT-4 4.81 µM | SF-295 17.1 µM | HCC 2998 > 100 µM | COLO 205 > 100 µM | IGROV-1 44.5 µM | SNB-19 > 42.2 µM | SK-OV-3 > 30.1 µM | BT-549 > 26.6 µM | MDA-MB-435 17.9 µM | U-251 > 93.5 µM | OVCAR-5 > 70 µM | OVCAR-8 3.85 µM

CCOC(=O)[C@@]12C(C)=CC(=O)O[C@]1(C)C1C(=O)NC(=O)C12 (some centres undefined)
inactive: K562 > 100 µM | NCI-H23 > 100 µM | SW-620 > 100 µM | MOLT-4 > 100 µM | SF-295 > 100 µM | HCC 2998 > 100 µM | COLO 205 > 100 µM | IGROV-1 > 100 µM | SNB-19 > 100 µM | SK-OV-3 > 100 µM | DMS-114 > 100 µM | U-251 > 100 µM | OVCAR-8 > 100 µM
